Experimental data reported in patent publication EP0060659A1, “Pharmaceutical composition for tumour treatment and process for preparing it” (NATIONAL FOUNDATION FOR CANCER RESEARCH, INC., priority 1981, dated 1982).
“And” between values parts separate entries of the source, which are not always exact repeats. Equal entries are not always repeated.

Columns and labels:
tumour cells = details: cited from earlier work
Ehrlich ascites cells = test: Ehrlich ascites tumour in mice, test substance in drinking water (Example 2); format: in vivo, adult female white Swiss mice; set-up: average weight of the tumours / weight of the excised tissues (tumour): unit not given here
Experimental: 30 adult female white Swiss mice were inoculated behind the right foreleg on the ventral side with about 5 x 10^6 Ehrlich ascites cells in 0.2 ml of physiological saline. The mice were randomized and divided into three groups, each group containing 10 animals. All animals received water to drink during days 1 and 2. On day 3, the water of one group (Group B) was replaced by a 0.05 molar solution of glyoxal whilst the water of another group (Group C) was replaced by a 0.05 molar solution of a glyoxal-cysteine adduct prepared essentially as described in Example 1. The third, or control, group (Group A) continued to receive water. All groups could drink ad libidum.
No weight loss was observed.
All animals were narcotized and their tumours excised and cleaned from the surrounding tissues.
In the cases where the tumour which developed was slightly ascitic, the fluid was not weighed and this is believed to account for the rather lower weight of these tumours.

SMILES | toxicity to cells of normal tissues (tumour cells) | toxic symptoms or loss of weight (Ehrlich ascites cells; after 7 days, 0.05 molar solution as drinking water) | size or form of the tumour on visual inspection (Ehrlich ascites cells; after 7 days, compared with control group) | inhibition over the control (Ehrlich ascites cells; from average tumour weights, 0.05 molar solution as drinking water) | average weight of the tumours (Ehrlich ascites cells; group of 10 mice, 0.05 molar solution as drinking water from day 3, control group average 1200) | weight of the excised tissues (tumour) (Ehrlich ascites cells; individual animals, 0.05 molar solution as drinking water from day 3, ad libitum, excised after 7 days, * = slightly ascitic tumour, fluid not weighed)
CC(O)C=CC=O (stereo not drawn) [4-hydroxypentenal] | only slightly toxic | – | – | – | – | –
O=CC=O [glyoxal] | – | no toxic symptoms or loss of weight | No significant decrease | about 18% | 985 | 800 and 530 and 190 and 90* and 1270 and 330 and 1220 and 1700 and 2740 and 980
